Test [1] deals with rat SAPK (isoform β) (Rattus norvegicus, UniProt P49187). The test is described as follows: SAPK FlashPlate Assay (inhibition of cJun phosphorylation). In kind it is biochemical. Particulars: GST-cJun substrate, 30 minutes at 37 °C. The procedure:
"IC50" refers to the concentration of a particular 4- or 5-alkynyloxindole or 4-or 5-alkenyloxindole required to inhibit 50% of cJun phosphorylation, which is a measure of inhibition of SAPK activity. IC50 can be measured, inter alia, using the assay described herein in Example 102.
Human JNK is highly homologous to rat SAPK. To measure the inhibitory activity of test compounds, the compounds were tested in the rat SAPK assay.
For the SAPK assay, purified GST-cJun (a chimeric protein containing cJun, a natural substrate of JNK) was coated on 96 well FlashPlates (New England Nuclear, Boston, MA). Purified rat SAPK (isoform β, Kyriakis et al. supra) was preincubated with preparations containing MEKK-1 and MKK4 for 30 minutes at 37 °C in assay buffer containing 25 mM HEPES, pH 7.5, 150 mM NaCl, 20 mM MgCl2, 2 mM DTT, 0.001% Tween 20, 1 µM ATP freshly added. In the preincubation step, MEKK-1 phosphorylates and activates MKK-4, which in tum phosphorylates and activates SAPK. The activated SAPK was then added to the cJun coated FlashPlates along with ^33P-ATP (0.32 µCi per reaction) and test compounds. The plates were incubated for 30 minutes at 37 °C, then washed with PBS, 0.01% Tween 20, and counted in the Topcount scintillation counter (Packard Instrument Co., Downers Grove, IL). Dilutions of compounds were tested in duplicate in each assay. The percent inhibition of cJun phosphorylation (a measure of inhibition of SAPK activity) was determined by the following formula: [formula] where "test compound" refers to the average counts per minute of the test duplicates, "nonspecific" refers to the average counts per minute when no SAPK was added, and "total" refers to the average counts per minute when no compound was added.

In test [2] the test system is MMP-3. The test is described as follows: MG-63 Cell-Based Assay, MMP-3 release after IL-1β stimulation (ELISA). Particulars: Homo sapiens, MG63 cells, IL-1β stimulated, 24 hours with compound, read-out: IC50 (µM) in MG63 Cells MMP3. From the text: (§1) The MG63 cell line, a human osteosarcoma cell line, was purchased from American Type Culture Collection (ATCC; Rockville, MD) and grown in the medium recommended by ATCC. When stimulated with human IL-1β , MG63 cells release matrix metalloproteinase 3 (MMP-3), an AP-1 dependent inflammatory mediator and IL-6, a NF-κB-dependent mediator. In this assay the ability of a test compound to block MMP-3 expression and not block IL-6 expression is an indication that the compound is a selective inhibitor of the AP-1 transcription pathway.
(§2) On day 1 the cells were plated at 2.5X10^4 cells/well in 96 well plates. After 24 hours, dexamethasone (the assay control) (Sigma, St. Louis, MO) and the test compounds were diluted to appropriate concentrations and added to the MG63 cells. The cells were incubated with the compounds for 24 hours after which the supernatants were removed and analyzed by ELISA.
(§3) In the ELISA, 96 well plates were coated with antibody to MMP-3 or IL-6. Supernatants were added to the coated plates and any antigen (MMP-3 or IL-6) in the supernatant bound to the antibody coated on the plates. The plates were then washed with PBS containing 0.05% Tween 20 (Sigma, St. Louis, MO) and the biotinylated secondary antibody was added. This secondary antibody binds to the already bound antigen creating a "sandwich effect". Plates were washed as described above and horseradish peroxidase (HRP)-streptavidin conjugate (Sigma, St. Louis, MO) was added to the plates. HRP-streptavidin bound to the biotin-antibody conjugate. The plates were washed and TMB substrate (Kirkegaard and Perry Labs, Gaithersburg, MD) was added to the wells. This substrate changes color in the presence of HRP-streptavidin. The intensity of the color (measured at 450 nm) is proportional to the amount of MMP-3 or IL-6 produced by the MG63 cells upon exposure to IL-1β and the test compounds. Optical density values were converted to concentration (pg/ml or Units/ml) based on a standard curve included in the assay. IC50 values for each test compound were determined from the linear regression of a plot of the logarithm of the concentration of compound versus amount of MMP-3 or IL-6 secreted. (The MMP-3 antibodies were prepared in-house using standard hybridoma technology and the IL-6 antibodies were obtained from either Genzyme, Cambridge, MA or Pharmingen, San Diego, CA.).
For orientation: ELISA stands for enzyme-linked immunosorbent assay.

Test [3] concerns IL-6. The test is described as follows: U937 Cell-Based Assay, IL-6 release after LPS stimulation (ELISA). Particulars: Homo sapiens, U-937; U937 cells, PMA then LPS stimulated, 24 hours; read-out: IC50 (µM) in U937 Cells IL6. How it is done: (§4) The U937 cells, a human monocyte/macrophage cell line, was obtained from the ATTC and grown in the recommended medium. These cells when stimulated with lipopolysaccharide (LPS) release TNF, another inflammatory mediator implicated in the JNK pathway (Swantek et al., supra) and IL-6. In this assay the ability of a test compound to block TNF expression is evaluated.
(§5) The assay is very similar to the MG63 cell based assay except for the following modifications. The U937 cells were suspension cells but when stimulated with phorbol myristate acetate (PMA) (Sigma, St. Louis, MO) they become adherent. After PMA stimulation the cells were washed in cell culture medium and plated at 1X10^5 cells/well in 96 well plates. The following day the test compounds and dexamethasone control (Sigma, St. Louis, MO) were added to the cells for 1 hour of preincubation. Then the cells were stimulated with LPS (Sigma, St. Louis, MO). After an additional 24 hours of incubation the supematants were removed and assayed for TNF-α and IL-6 by ELISA. The IL-6 ELISA was run as described previously for the MG63 assay. The TNF ELISA was run using a kit supplied by Genzyme (Cambridge, MA).

In test [4] the test system is TNF. The test is described as follows: U937 Cell-Based Assay, TNF release after LPS stimulation (ELISA). The conditions noted are these: Homo sapiens, U-937; U937 cells, PMA then LPS stimulated, 24 hours. How it is done: as §4, §5
Test [5] has as its system IL-6. The test is described as follows: MG-63 Cell-Based Assay, IL-6 release after IL-1β stimulation (ELISA). The conditions noted are these: Homo sapiens, MG63 cells, IL-1β stimulated, 24 hours with compound, read-out: IC50 (µM) in MG63 Cells IL6.
Text: as §1, §2, §3

This passage reports IC50 results from EP1149092B1, “4- AND 5-ALKYNYLOXINDOLES AND 4- AND 5-ALKENYLOXINDOLES” (F. HOFFMANN-LA ROCHE AG, priority 1998, dated 2000).

Sequence of rat SAPK (isoform β) (P49187 whole entry, canonical isoform): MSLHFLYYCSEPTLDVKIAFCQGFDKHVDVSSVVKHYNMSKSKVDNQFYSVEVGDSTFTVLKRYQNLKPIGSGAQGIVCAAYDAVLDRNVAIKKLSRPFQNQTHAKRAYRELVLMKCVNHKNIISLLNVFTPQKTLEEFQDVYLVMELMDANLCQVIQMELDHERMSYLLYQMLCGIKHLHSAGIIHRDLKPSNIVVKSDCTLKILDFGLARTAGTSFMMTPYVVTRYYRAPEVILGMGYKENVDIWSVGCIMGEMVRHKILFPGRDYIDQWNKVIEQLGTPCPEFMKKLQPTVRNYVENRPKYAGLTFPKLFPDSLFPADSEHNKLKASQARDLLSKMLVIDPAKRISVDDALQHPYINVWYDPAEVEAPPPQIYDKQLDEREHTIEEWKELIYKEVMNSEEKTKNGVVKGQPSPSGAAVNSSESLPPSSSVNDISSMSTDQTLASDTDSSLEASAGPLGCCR

As a reminder, the IC50 is the concentration that inhibits the measured activity by half. With `COc1cc[nH]c1/C=C1\C(=O)Nc2cccc(C#CC(O)c3ccsc3)c21` (racemic) [BB, rac-(Z)-1,3-Dihydro-4-[3-hydroxy-3-(thiophen-3-yl)-1-propynyl]-3-[(3-methoxy-1H-pyrrol-2-yl)methylene]-2H-indol-2-one], the IC50 was less than 1 µM in test [1]; less than 12.5 µM in test [2]; less than 20 µM in test [3]; less than 8 µM in test [4]; less than 20 µM in test [5].

`COc1cc[nH]c1/C=C1\C(=O)Nc2cccc(C#CC(O)c3cccc(OC)c3OC)c21` (racemic) [EE, rac-(Z)-1,3-Dihydro-4-[3-(2,3-dimethoxyphenyl)-3-hydroxy-1-propynyl]-3-[(3-methoxy-1H-pyrrol-2-yl)methylene]-2H-indol-2-one]: the values for the IC50 in test [1], in test [2] and in test [5] were less than 1 µM, less than 12.5 µM and less than 20 µM, respectively.

On to `COc1cc[nH]c1/C=C1\C(=O)Nc2cccc(C#CC(O)c3ccccc3)c21` (racemic) [FFF, rac-(Z)-1,3-Dihydro-4-(3-hydroxy-3-phenyl-1-propynyl)-3-[(3-methoxy-1H-pyrrol-2-yl)methylene]-2H-indol-2-one], for which the half-maximal inhibitory concentration (IC50) was less than 1 µM in test [1], less than 12.5 µM in test [2] and less than 20 µM in test [5].

With `COc1ccc(C(O)C#Cc2cccc3c2/C(=C/c2[nH]ccc2OC)C(=O)N3)cc1` (racemic) [H, rac-(Z)-1,3-Dihydro-4-[3-hydroxy-3-(4-methoxyphenyl)-1-propynyl]-3-[(3-methoxy-1H-pyrrol-2-yl)methylene]-2H-indol-2-one], the IC50 in test [1] was less than 1 µM; in test [2], less than 12.5 µM; in test [5], less than 20 µM.

Regarding `COc1cc[nH]c1/C=C1\C(=O)Nc2cccc(C#CC(O)c3ccc4c(c3)OCO4)c21` (racemic) [N, rac-(Z)-4-[3-(1,3-benzodioxol-5-yl)-3-hydroxy-1-propynyl]-1,3-dihydro-3-[(3-methoxy-1H-pyrrol-2-yl)methylene]-2H-indol-2-one], the IC50 in test [1] is less than 1 µM; in test [2], less than 12.5 µM; in test [3], less than 20 µM; in test [4] it was less than 8 µM; in test [5] it was less than 20 µM.

Take `COc1cc(C(O)C#Cc2cccc3c2/C(=C/c2[nH]ccc2OC)C(=O)N3)ccc1O` (racemic) [O, rac-(Z)-1,3-Dihydro-4-[3-hydroxy-3-(4-hydroxy-3-methoxyphenyl)-1-propynyl]-3-[(3-methoxy-1H-pyrrol-2-yl)methylene]-2H-indol-2-one]: the IC50 in test [2] is less than 12.5 µM; in test [3] it was less than 20 µM; in test [4], less than 8 µM; in test [5], less than 20 µM.

`COc1cc[nH]c1/C=C1\C(=O)Nc2cccc(C#CC(O)c3ccc(N(C)C)cc3)c21` (racemic) [R, rac-(Z)-1,3-Dihydro-4-[3-(4-dimethylaminophenyl)-3-hydroxy-1-propynyl]-3-[(3-methoxy-1H-pyrrol-2-yl)methylene]-2H-indol-2-one]: the IC50 in test [1] was less than 1 µM; in test [2] it was less than 12.5 µM; in test [3], 20 µM; in test [4], less than 8 µM; in test [5], less than 20 µM.

Turning to `C#CC(O)c1ccc[nH]1` (centres unmarked) [CC, 3-Hydroxy-3-(1H-pyrrol-2-yl)-1-propyne], the IC50 is less than 12.5 µM in test [2] and less than 20 µM in test [5].

Regarding `COc1cc[nH]c1/C=C1\C(=O)Nc2cccc(C#Cc3cccnc3)c21` [CCC, (Z)-1,3-Dihydro-3-[(3-methoxy-1H-pyrrol-2-yl)methylene]-4-[(3-pyridinyl)ethynyl]-2H-indol-2-one], the IC50 was less than 1 µM in test [1], less than 12.5 µM in test [2] and greater than 20 µM in test [5].

`COc1cc[nH]c1/C=C1\C(=O)Nc2cccc(C#Cc3ccccc3)c21` [D, (Z)-1,3-Dihydro-4-(phenylethynyl)-3-[(3-methoxy-1H-pyrrol-2-yl)methylene]-2H-indol-2-one]: the results for the IC50 in test [1], in test [2] and in test [5] were less than 1 µM, less than 12.5 µM and 20 µM, respectively.

`COc1ccc(C#Cc2cccc3c2/C(=C/c2[nH]ccc2OC)C(=O)N3)cc1` [G, (Z)-1,3-Dihydro-4-[(4-methoxyphenyl)ethynyl]-3-[(3-methoxy-1H-pyrrol-2-yl)methylene]-2H-indol-2-one]: the IC50 was less than 1 µM in test [1], less than 12.5 µM in test [2] and less than 20 µM in test [5].

As to `C#CC(O)c1ccc(OC)c(O)c1` (centres unmarked) [GG, 3-Hydroxy-3-(3-hydroxy-4-methoxyphenyl)-1-propyne], the IC50 in test [2] was less than 12.5 µM; in test [5] it was less than 20 µM.

Consider `COc1cc[nH]c1/C=C1\C(=O)Nc2ccc(NC(=O)Cc3cccs3)c(C#Cc3cccnc3)c21` [III, (Z)-N-[2,3-Dihydro-3-[(3-methoxy-1H-pyrrol-2-yl)methylene]-2-oxo-4-[(3-pyridinyl)ethynyl]-1H-indol-5-yl]-2-thiopheneacetamide], for which the results for the IC50 in test [2] and in test [5] were less than 12.5 µM and 20 µM, respectively.

In the case of `C#CC(O)c1ccc(O)cc1` (centres unmarked) [P, 3-Hydroxy-3-(4-hydroxyphenyl)-1-propyne], the IC50 was less than 12.5 µM in test [2] and less than 20 µM in test [5].

Regarding `COc1ccc(/C=C/c2cccc3c2/C(=C/c2[nH]ccc2OC)C(=O)N3)cc1OC` [QQQ, 1,3-Dihydro-4-[(E)-2-(3,4-dimethoxyphenyl)-ethenyl]-(Z)-3-[(3-methoxy-1H-pyrrol-2-yl)methylene]-2H-indol-2-one], the IC50 in test [1] is less than 1 µM; in test [2], less than 12.5 µM; in test [5], 20 µM.

In the case of `COc1cc[nH]c1/C=C1\C(=O)Nc2cccc(C#CCOc3ccccc3)c21` [Y, (Z)-1,3-Dihydro-3-[(3-methoxy-1H-pyrrol-2-yl)methylene]-4-(3-phenoxy-1-propynyl)-2H-indol-2-one], the 50% inhibitory concentration (IC50) is less than 1 µM in test [1], less than 12.5 µM in test [2] and less than 20 µM in test [5].

Consider `C#CC(O)c1cccn1C` (centres unmarked) [Z, 3-Hydroxy-3-(1-methyl-pyrrol-2-yl)-1-propyne], for which the IC50 was less than 12.5 µM in test [2] and less than 20 µM in test [5].
